pIC50: −log10 of the molar value.
Experiments:
human MEK1 = human MEK1 (Homo sapiens, UniProt Q02750); test: MEK-1 Enzyme Assay (LANCE-HTRF); format: biochemical; conditions: 100 nM MEK1, 15 μM ATP, 300 nM ERK2, two hours; read-out: MEK inhibition
How it was run: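 TR-FRET readout of MEK1-catalysed ERK1 phosphorylation; after a 2 h reaction, Eu-anti-PY20 (5 nM) and anti-GST-APC (50 nM) were added in buffer with 50 mM EDTA and 0.05% BSA, then incubated 1 h in the dark.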

Murine colon C26 cells = test: Tumor cell proliferation assay (ATP Lite), C26; format: cell-based; conditions: Mus musculus, 96 h, 4 days
Method: (§1) Assay 2: Tumor Cell Proliferation Assays (ATP Lite)
(§2) Murine colon C26, human melanoma A375 and MeI5 or human pancreatic MiaPaCa-2 cells were plated in 96 well Corning white plates (1500 cells/well for C26, and 2000 cells/well for A375, and MiaPaCa-2) and cultured overnight at 37° C. in 5% CO2. Inhibitors were serially diluted in 100% DMSO and subsequently added to cells to reach a final concentration of 0.25% DMSO. The cells were incubated for 4 days in the presence of test compounds in cell growth media (DMEM with 10% fetal bovine serum, 2 mM glutamine for C26, and MiaPaCa-2, and RPMI with 10% fetal bovine serum, 2 mM glutamine for A375). Cell proliferation was quantitated using the ATP lite cell proliferation kit (Packard). Columns 4-6 show the concentration of compounds required to induce 50% cell death (IC50 in μM) of […]. With “+” meaning 3 μM<IC50≦10 μM and “++” IC50≦3 μM and “n.d.” means not determined. Few compounds were also tested on human melanoma cell MeI5.

[1] = tested on: human melanoma A375 cells; test: Tumor cell proliferation assay (ATP Lite), A375; format: cell-based; conditions: A-375, 96 h, 4 days
Method: as §1, §2

[2] = tested on: human pancreatic MiaPaCa-2 cells; test: Tumor cell proliferation assay (ATP Lite), MiaPaCa-2; format: cell-based; conditions: MIA PaCa-2, 96 h, 4 days
Method: as §1, §2

Chain of human MEK1 (Q02750 whole entry): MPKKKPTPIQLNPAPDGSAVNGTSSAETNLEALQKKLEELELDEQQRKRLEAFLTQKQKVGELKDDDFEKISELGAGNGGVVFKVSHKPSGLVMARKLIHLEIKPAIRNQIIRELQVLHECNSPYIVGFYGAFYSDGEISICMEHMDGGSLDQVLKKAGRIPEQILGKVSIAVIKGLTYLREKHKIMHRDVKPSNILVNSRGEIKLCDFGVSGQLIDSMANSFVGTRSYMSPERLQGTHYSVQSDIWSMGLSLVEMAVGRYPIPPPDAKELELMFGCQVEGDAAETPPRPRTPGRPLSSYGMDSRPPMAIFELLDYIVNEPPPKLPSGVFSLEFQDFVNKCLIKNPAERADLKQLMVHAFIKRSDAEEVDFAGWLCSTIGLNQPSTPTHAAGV

| pIC50 (human MEK1) | IC50 (Murine colon C26 cells) [µM] | IC50 [1] [µM] | IC50 [2] [µM] | SMILES |
| --- | --- | --- | --- | --- |
| > 6.00 | 3 to 10 | ≤ 3 | 3 to 10 | COc1cccc(C(=O)NNC(=O)c2ccncc2Nc2ccc(I)cc2F)c1 [Example 55, 3-[(2-fluoro-4-iodophenyl)amino]-N′-(3-methoxybenzoyl)-isonicotinohydrazide] |
| 5.00 to 6.00 | 3 to 10 | ≤ 3 | 3 to 10 | O=C(NNc1ccnc2cc(Cl)ccc12)c1ccncc1Nc1ccc(I)cc1F [Example 56, N′-(7-chloroquinolin-4-yl)-3-[(2-fluoro-4-iodophenyl)amino]-isonicotino-hydrazide] |
| > 6.00 | ≤ 3 | ≤ 3 | ≤ 3 | O=C(NC1CCC1)c1ccncc1Nc1ccc(I)cc1F [Example 58, N-cyclobutyl-3-[(2-fluoro-4-iodophenyl)amino]isonicotinamide] |
| > 6.00 | ≤ 3 | ≤ 3 | ≤ 3 | O=C(NC1CCCC1)c1ccncc1Nc1ccc(I)cc1F [Example 60, N-cyclopentyl-3-[(2-fluoro-4-iodophenyl)amino]isonicotinamide] |
| > 6.00 | 3 to 10 | ≤ 3 | 3 to 10 | CC(=O)NCCNC(=O)c1ccncc1Nc1ccc(I)cc1Cl [Example 64, N-(2-Acetylamino-ethyl)-3-(2-chloro-4-iodo-phenylamino)-isonicotinamide] |
| > 6.00 | 3 to 10 | ≤ 3 | 3 to 10 | CC(C)(C)ONC(=O)c1ccncc1Nc1ccc(I)cc1Cl [Example 65] |
| > 6.00 | ≤ 3 | ≤ 3 | ≤ 3 | NC(=O)c1ccncc1Nc1ccc(I)cc1 [Example 67, 3-(4-iodo-phenylamino)-isonicotinamide] |
| > 6.00 | ≤ 3 | ≤ 3 | ≤ 3 | NC(=O)c1cc(Br)ncc1Nc1ccc(I)cc1F [Example 68, 2-Bromo-5-(2-fluoro-4-iodo-phenylamino)-isonicotinamide] |
| > 6.00 | ≤ 3 | ≤ 3 | ≤ 3 | O=C(NCCCO)c1cc(Br)ncc1Nc1ccc(I)cc1F [Example 70, 2-Bromo-5-(2-fluoro-4-iodo-phenylamino)-N-(3-hydroxy-propyl)-isonicotinamide] |
| > 6.00 | 3 to 10 | ≤ 3 | 3 to 10 | O=C(NCCCn1ccnc1)c1cc(Br)ncc1Nc1ccc(I)cc1F [Example 72, 2-Bromo-5-(2-fluoro-4-iodo-phenylamino)-N-(3-imidazol-1-yl-propyl)-isonicotinamide] |
| > 6.00 | 3 to 10 | ≤ 3 | 3 to 10 | O=C(NCCO)c1cc(Br)ncc1Nc1ccc(I)cc1F [Example 74, 2-Bromo-5-(2-fluoro-4-iodo-phenylamino)-N-(2-hydroxy-ethyl)-isonicotinamide] |
| > 6.00 | ≤ 3 | ≤ 3 | ≤ 3 | O=C(NOC[C@@H](O)CO)c1ccncc1Nc1ccc(I)cc1F [Example 75, N-{[(2S)-2,3-dihydroxypropyl]oxy}-3-[(2-fluoro-4-iodophenyl)-amino]isonicotin-amide] |
| > 6.00 | 3 to 10 | ≤ 3 | 3 to 10 | CCONC(=O)c1ccncc1Nc1ccc(I)cc1Cl [Example 76] |
| > 6.00 | 3 to 10 | ≤ 3 | 3 to 10 | C=CCONC(=O)c1ccncc1Nc1ccc(I)cc1Cl [Example 77, N-allyloxy-3-(2-chloro-4-iodo-phenylamino)-isonicotinamide] |
| > 6.00 | ≤ 3 | ≤ 3 | ≤ 3 | O=C(NCCCCl)c1ccncc1Nc1ccc(I)cc1F [Example 79, N-(3-chloropropyl)-3-[(2-fluoro-4-iodophenyl)-amino]isonicotinamide] |
| > 6.00 | 3 to 10 | ≤ 3 | 3 to 10 | O=C(NOCc1ccccc1)c1ccncc1Nc1ccc(I)cc1Cl [Example 81, N-Benzyloxy-3-(2-chloro-4-iodo-phenylamino)-isonicotinamide] |

| pIC50 (human MEK1) | IC50 (Murine colon C26 cells) [µM] | IC50 [1] [µM] | IC50 [2] [µM] | SMILES |
| --- | --- | --- | --- | --- |
| > 6.00 | 3 to 10 | ≤ 3 | 3 to 10 | O=C(NC1CC2CCC1C2)c1ccncc1Nc1ccc(I)cc1F (centres unmarked) [Example 82, N-bicyclo[2.2.1]hept-2-yl-3-[(2-fluoro-4-iodophenyl)amino]-isonicotinamide] |
| > 6.00 | ≤ 3 | ≤ 3 | ≤ 3 | O=C(NCC(O)COc1ccccc1)c1ccncc1Nc1ccc(I)cc1F (centres unmarked) [Example 83] |
| > 6.00 | 3 to 10 | ≤ 3 | 3 to 10 | Cc1ccc(CCNC(=O)c2ccncc2Nc2ccc(I)cc2F)cc1 [Example 85, 3-[(2-fluoro-4-iodophenyl)amino]-N-[2-(4-methylphenyl)-ethyl]isonicotinamide] |
| > 6.00 | 3 to 10 | ≤ 3 | 3 to 10 | Cc1ccc(CC(=O)NC2CCN(C(=O)c3ccncc3Nc3ccc(I)cc3F)CC2)cc1 [Example 86, N-(1-{3-[(2-fluoro-4-iodophenyl)amino]isonicotinoyl}piperidin-4-yl)-2-(4-methylphenyl)acetamide] |
| > 6.00 | 3 to 10 | 3 to 10 | 3 to 10 | O=C(NCCN1CCOCC1)c1cc(Br)ncc1Nc1ccc(I)cc1F [Example 88, 2-Bromo-5-(2-fluoro-4-iodo-phenylamino)-N-(2-morpholin-4-yl-ethyl)-isonicotinamide] |
| > 6.00 | ≤ 3 | ≤ 3 | ≤ 3 | Cc1cccc(NNC(=O)c2ccncc2Nc2ccc(I)cc2F)c1 [Example 90, 3-[(2-fluoro-4-iodophenyl)amino]-N′-(3-methylphenyl)isonicotino-hydrazide] |
| > 6.00 | 3 to 10 | ≤ 3 | 3 to 10 | O=C(NOCc1ccccc1)c1ccncc1Nc1ccc(I)cc1F [Example 91, N-(benzyloxy)-3-[(2-fluoro-4-iodophenyl)amino]isonicotinamide] |
| > 6.00 | 3 to 10 | ≤ 3 | 3 to 10 | O=C(O)CONC(=O)c1ccncc1Nc1ccc(I)cc1F [Example 92, [({3-[(2-fluoro-4-iodophenyl)amino]isonicotinoyl}amino)oxy]acetic acid] |
| > 6.00 | 3 to 10 | ≤ 3 | 3 to 10 | O=C(NCc1ccc(F)cc1F)c1ccncc1Nc1ccc(I)cc1F [Example 93, N-(2,4-difluorobenzyl)-3-[(2-fluoro-4-iodophenyl)amino]-isonicotinamide] |
| > 6.00 | ≤ 3 | ≤ 3 | ≤ 3 | O=C(NOC[C@H](O)CO)c1ccncc1Nc1ccc(I)cc1 [Example 96, N-{[(2R)-2,3-dihydroxypropyl]oxy}-3-(4-iodophenylamino)-isonicotinamide] |
| > 6.00 | ≤ 3 | ≤ 3 | ≤ 3 | NC(=O)c1cc[n+]([O-])cc1Nc1ccc(I)cc1F [Example 97, 3-(2-Fluoro-4-iodo-phenylamino)-1-oxy-isonicotinamide] |
| > 6.00 | 3 to 10 | ≤ 3 | 3 to 10 | CCOC(CNC(=O)c1ccncc1Nc1ccc(I)cc1F)OCC [Example 98, N-(2,2-diethoxyethyl)-3-[(2-fluoro-4-iodophenyl)amino]-isonicotinamide] |
| > 6.00 | 3 to 10 | ≤ 3 | 3 to 10 | Cc1ccc(NNC(=O)c2ccncc2Nc2ccc(I)cc2F)cc1 [Example 99, 3-[(2-fluoro-4-iodophenyl)amino]-N′-(4-methylphenyl)isonicotino-hydrazide] |
| > 6.00 | 3 to 10 | ≤ 3 | 3 to 10 | Cc1nccc(C(N)=O)c1Nc1ccc(I)cc1F [Example 100, 3-(2-Fluoro-4-iodo-phenylamino)-2-methyl-isonicotinamide] |
| > 6.00 | 3 to 10 | ≤ 3 | 3 to 10 | O=C(NNc1cc(C(F)(F)F)cc(C(F)(F)F)c1)c1ccncc1Nc1ccc(I)cc1F [Example 101] |
| > 6.00 | 3 to 10 | ≤ 3 | 3 to 10 | O=C(O)c1ccc(CCNC(=O)c2ccncc2Nc2ccc(I)cc2F)cc1 [Example 102, 4-[2-({3-[(2-fluoro-4-iodophenyl)amino]isonicotinoyl}-amino)ethyl]benzoic acid] |

Reference: patent publication US8524911B2, “3-arylamino pyridine derivatives” (Merck Serono SA, priority 2004, dated 2013)
